Laboratory results taken from patent US20170000889A1, “STABLE BROMFENAC OPHTHALMIC SOLUTION” (SENTISS PHARMA PRIVATE LIMITED, priority 2013, published 2017).

Test: Haziness of citrate-buffered bromfenac formulation on addition of BKC, effect of surfactants
Assay type: physicochemical
Conditions: for Degradation of the bromfenac solution with the surfactant: compared among different surfactants; for Haziness after addition of BKC to the citrate formulation: surfactant added to citrate-buffered bromfenac solution with benzalkonium chloride
Method: In yet other embodiment of the present invention, citrate buffer is used instead of borate buffer but when benzalkonium chloride (BKC) was added in the citrate formulation it causes haziness of the formulation.
The inventors of the present invention extensively studied how to overcome the haziness occurred during the addition of BKC.

Degradation of the bromfenac solution with the surfactant	Haziness after addition of BKC to the citrate formulation	Substance
least amount of degradation	remove the haziness	polysorbate 80
least amount of degradation	remove the haziness	polyoxyl-15-hydroxystearate
